According to ChEMBL document CHEMBL1629711, “Synthesis and in vitro biological evaluation of new polyamine conjugates as potential anticancer drugs” (Eur J Med Chem, 2010):
pIC50: −log10 of the molar value. Active and inactive are the calls of the source. The rule behind the calls is not given here.

Legend:
A-375 [1] = assay: Induction of apoptosis in human A375 cells assessed as morphological changes at IC50 concentration after 44 hrs using acridine orange and ethidium bromide staining by fluorescence microscopy; assay type: functional, cell-based
A-375 [2] = assay: Induction of apoptosis in human A375 cells assessed as morphological changes at 50 uM after 44 hrs using acridine orange and ethidium bromide staining by fluorescence microscopy; assay type: functional
A-375 [3] = assay: Cell cycle arrest in human A375 cells assessed as accumulation at G2/M phase at 20 uM after 24 hrs using propidium iodide staining by flow cytometry relative to control; assay type: functional
A-375 [4] = assay: Cytotoxicity against human A375 cells after 44 hrs by MTT assay; assay type: functional, cell-based; details: for pIC50: A-375, 44 h
A-375 [5] = assay: Cell cycle arrest in human A375 cells assessed as accumulation at S phase at 20 uM after 24 hrs using propidium iodide staining by flow cytometry relative to control; assay type: functional
A-375 [6] = assay: Cell cycle arrest in human A375 cells assessed as accumulation at G0/G1 phase at 20 uM after 24 hrs using propidium iodide staining by flow cytometry relative to control; assay type: functional
A-375 [7] = assay: Cell cycle arrest in human A375 cells assessed as accumulation at hypodiploid subG1 phase at 20 uM after 24 hrs using propidium iodide staining by flow cytometry relative to control; assay type: functional
A-375 [8] = assay: Induction of necrosis in human A375 cells assessed as morphological changes at IC50 concentration after 44 hrs using acridine orange and ethidium bromide staining by fluorescence microscopy; assay type: functional, cell-based
A-375 [9] = assay: Cytotoxicity against human A375 cells at 1 to 100 uM after 44 hrs by MTT assay; assay type: functional, cell-based
A-375 [10] = assay: Cell cycle arrest in human A375 cells assessed as accumulation at S phase at 50 uM after 24 hrs using propidium iodide staining by flow cytometry relative to control; assay type: functional
A-375 [11] = assay: Cell cycle arrest in human A375 cells assessed as accumulation at hypodiploid subG1 phase at 50 uM after 24 hrs using propidium iodide staining by flow cytometry relative to control; assay type: functional
A-375 [12] = assay: Cell cycle arrest in human A375 cells assessed as accumulation at G2/M phase at 50 uM after 24 hrs using propidium iodide staining by flow cytometry relative to control; assay type: functional
A-375 [13] = assay: Cell cycle arrest in human A375 cells assessed as accumulation at G0/G1 phase at 50 uM after 24 hrs using propidium iodide staining by flow cytometry relative to control; assay type: functional

| SMILES | Activity (A-375 [1]) | inhibition (A-375 [4]) | pIC50 (A-375 [4]) | Activity (A-375 [8]) | Activity (A-375 [9]) | other results |
| --- | --- | --- | --- | --- | --- | --- |
| Nc1c(C(=O)NCCCN2CCN(CCCNC(=O)c3cnc4ccccc4c3N)CC2)cnc2ccccc12 | inactive | Dose-dependent effect | 4.77 | inactive | – | Activity (A-375 [2]): 30%; Activity (A-375 [3]): 21%; Activity (A-375 [5]): 31%; Activity (A-375 [6]): 49%; Activity (A-375 [7]): 4% |
| O=C1c2ccccc2C(=O)N1CCCN1CCN(CCCN2C(=O)c3ccccc3C2=O)CC1 | – | – | – | – | inactive | – |
| Cc1ccc2nnc(C(=O)NCCCOCCCCOCCCNC(=O)c3nnc4ccc(C)cc4c3N)c(N)c2c1 | inactive | Dose-dependent effect | 4.00 | inactive | – | – |
| O=C1c2ccccc2C(=O)N1CCCOCCCCOCCCN1C(=O)c2ccccc2C1=O | – | – | – | – | inactive | – |
| CN(CCCN1C(=O)c2cccc([N+](=O)[O-])c2C1=O)CCCN1C(=O)c2cccc([N+](=O)[O-])c2C1=O | – | – | – | – | inactive | – |
| Cc1ccc2nnc(C(=O)NCCCN(C)CCCNC(=O)c3nnc4ccc(C)cc4c3N)c(N)c2c1 | inactive | Dose-dependent effect | 3.94 | inactive | – | – |
| O=C1c2cccc([N+](=O)[O-])c2C(=O)N1CCCN1CCN(CCCN2C(=O)c3cccc([N+](=O)[O-])c3C2=O)CC1 | – | – | – | – | inactive | – |
| CN(CCCNC(=O)c1cnc2ccccc2c1N)CCCNC(=O)c1cnc2ccccc2c1N | inactive | Dose-dependent effect | 4.06 | inactive | – | – |
| CN(CCCN1C(=O)c2ccccc2C1=O)CCCN1C(=O)c2ccccc2C1=O | – | – | – | – | inactive | – |
| Cc1ccc2nnc(C(=O)NCCCN3CCN(CCCNC(=O)c4nnc5ccc(C)cc5c4N)CC3)c(N)c2c1 | inactive | Dose-dependent effect | 4.50 | inactive | – | Activity (A-375 [10]): 22%; Activity (A-375 [2]): 14%; Activity (A-375 [11]): 9%; Activity (A-375 [3]): 46%; Activity (A-375 [12]): 46%; Activity (A-375 [5]): 19%; Activity (A-375 [6]): 35%; Activity (A-375 [7]): 4%; Activity (A-375 [13]): 32% |
| O=C1c2cccc([N+](=O)[O-])c2C(=O)N1CCCOCCCCOCCCN1C(=O)c2cccc([N+](=O)[O-])c2C1=O | – | – | – | – | inactive | – |
| Nc1c(C(=O)NCCCOCCCCOCCCNC(=O)c2cnc3ccccc3c2N)cnc2ccccc12 | inactive | Dose-dependent effect | 4.81 | inactive | – | Activity (A-375 [10]): 53%; Activity (A-375 [2]): 8%; Activity (A-375 [11]): 3%; Activity (A-375 [3]): 20%; Activity (A-375 [12]): 8%; Activity (A-375 [5]): 22%; Activity (A-375 [6]): 58%; Activity (A-375 [7]): 2%; Activity (A-375 [13]): 39% |
